For the data set, the target named is IRF4. To be noted: ASO.

“And” between values parts separate entries of the source, which are not always exact repeats. Equal entries are not always repeated. After the bases stand the sugars from the 5' end (letter, count) and the backbone: PS all phosphorothioate, else s phosphorothioate and o phosphodiester by linkage. Methylation of C is not given here. e = 2'-O-(2-methoxyethyl) (MOE); k = constrained ethyl (cEt); d = 2'-deoxy (DNA)

Take ACTGAGTACAAACTAA (sugars k3 d10 k3, PS): the target mRNA inhibition (SK-MEL-28, 4 µM) was 32%.

Take “TTGGTTGGCTGGTCTT (sugars kdddddddddkekeke, PS)”: the target mRNA inhibition (MM.1R, 1 µM) was -7%.

For the sequence ACGCAATGGCAAAAGA (sugars k3 d10 k3, PS), the target mRNA inhibition (SK-MEL-28, 4 µM) was 11%.

Regarding AGTAATTTTAAGGCCC (sugars k3 d10 k3, PS), the target mRNA inhibition (SK-MEL-28, 4 µM) came to 60%.

As to GCAGTTCTTAATATCA (sugars k3 d10 k3, PS), the target mRNA inhibition (SK-MEL-28, 4 µM) is 60%.

For CTCTAGACAGAGGCCC (sugars k3 d10 k3, PS), the target mRNA inhibition (SK-MEL-28, 4 µM) was 20%.

CCTACAAAATGCCTCC (sugars k3 d10 k3, PS): for the setting “SK-MEL-28, 4 µM”, the target mRNA inhibition turned out to be 47%.

Regarding AGCGAGTCAGACAGTG (sugars k3 d10 k3, PS), the target mRNA inhibition (SK-MEL-28, 4 µM) came out at 16%.

As to ATCTGATCCGGACTCT (sugars k3 d10 k3, PS), under “SK-MEL-28, 4 µM”, the target mRNA inhibition was found to be 9%.

For the sequence AAACCAGTACAGTCCA (sugars k3 d10 k3, PS), for the setting “MM.1R, 1 µM”, the target mRNA inhibition is -23%.

With “GTTGGCTGGTCTTTGT (sugars kkdddddddddekeke, PS)”, under “MM.1R, 1 µM”, the target mRNA inhibition is 23%.

ATAGTGCAATGAAATG (sugars k3 d10 k3, PS): the target mRNA inhibition (SK-MEL-28, 4 µM) stood at 36%.

Consider GCCAATGCAACTGAAT (sugars k3 d10 k3, PS), for which the target mRNA inhibition (SK-MEL-28, 4 µM) was 36%.

Consider GCTTGAGGTTTTCCTA (sugars k3 d10 k3, PS), for which the target mRNA inhibition (SK-MEL-28, 4 µM) was 77%.

As for CCCAATACATATCCAT (sugars k3 d10 k3, PS), under “SK-MEL-28, 4 µM”, the target mRNA inhibition stood at 74%.

In the case of GCCCACTGAGTGTGCA (sugars k3 d10 k3, PS), the target mRNA inhibition (SK-MEL-28, 4 µM) came to 10%.

Take TTAAGATTTATGTTCC (sugars k3 d10 k3, PS): the target mRNA inhibition (SK-MEL-28, 4 µM) was 64%.

On to CAGCACCGTGGTGCGA (sugars k3 d10 k3, PS), for which the target mRNA inhibition (MM.1R, 1 µM) is -27%.

Consider CTAGGTTTCAGTTGTA (sugars k3 d10 k3, PS), for which the target mRNA inhibition (SK-MEL-28, 4 µM) turned out to be 54%.

As for CCCTTCCCGCTCCGAA (sugars k3 d10 k3, PS), the target mRNA inhibition (SK-MEL-28, 4 µM) stood at 16%.

As to GTTCACAACAGAGCTG (sugars k3 d10 k3, PS), the target mRNA inhibition (MM.1R, 1 µM) is -16%.

As to AACAGATAACGAGGTG (sugars k3 d10 k3, PS), the target mRNA inhibition (SK-MEL-28, 4 µM) is -4%.

With “GGAAGTTTACACTGGA (sugars kkdddddddddkekek, PS)”, the target mRNA inhibition (MM.1R, 1 µM) came out at 47%.

CCCAAGTGAGGTCACC (sugars k3 d10 k3, PS): the target mRNA inhibition (SK-MEL-28, 4 µM) was 20%.

As for ACGGACTGGAACATTG (sugars k3 d10 k3, PS), the target mRNA inhibition (MM.1R, 1 µM) is 38%.

For the sequence GAAAGATTCAGCCTCT (sugars k3 d10 k3, PS), for the setting “SK-MEL-28, 4 µM”, the target mRNA inhibition worked out at 45%.

As to AGCCTAGAGGTGCCTT (sugars k3 d10 k3, PS), where the note is “SK-MEL-28, 4 µM”, the target mRNA inhibition was 41%.

As for TGTAACTGACTAACAG (sugars k3 d10 k3, PS), under “MM.1R, 1 µM”, the target mRNA inhibition was -31%.

For TGATAAAGGCTGAACT (sugars k3 d10 k3, PS), the target mRNA inhibition (SK-MEL-28, 4 µM) stood at 41%.

Consider GGCTACAGGCACGGCT (sugars k3 d10 k3, PS), for which the target mRNA inhibition (SK-MEL-28, 4 µM) is 42%.

“CTGCTTGAGGTTTTCC (sugars kdddddddddkekeke, PS)”: the target mRNA inhibition (MM.1R, 1 µM) stood at 20%.

On to AGATGTAAAGATAGGA (sugars k3 d10 k3, PS), for which, for the setting “SK-MEL-28, 4 µM”, the target mRNA inhibition is 54%.

For the sequence CTCAATAATCTCCCAG (sugars k3 d10 k3, PS), the target mRNA inhibition (SK-MEL-28, 4 µM) came to 53%.

For the sequence CGCATAGGTCCTTCAG (sugars k3 d10 k3, PS), the target mRNA inhibition (MM.1R, 1 µM) came to 6%.

As to GCATAGAGTCACCTGG (sugars k3 d10 k3, PS), the target mRNA inhibition (SK-MEL-28, 4 µM) is 39%.

GAACACCATGCCCAAC (sugars k3 d10 k3, PS): under “SK-MEL-28, 4 µM”, the target mRNA inhibition is 7%.

Regarding CTTACTAGGTGCTTGT (sugars k3 d10 k3, PS), the target mRNA inhibition (SK-MEL-28, 4 µM) was determined as 38%.

Regarding AGGCTAATCAGAATGG (sugars k3 d10 k3, PS), the target mRNA inhibition (SK-MEL-28, 4 µM) was 42%.

As to ACTAAATTCTAGTTTG (sugars k3 d10 k3, PS), the target mRNA inhibition (SK-MEL-28, 4 µM) stood at 0%.

For TGAGATGCGGAGGTTC (sugars k3 d10 k3, PS), the target mRNA inhibition (MM.1R, 1 µM) is 33% and 27%.

On to TAACGAGGTGCCTTAC (sugars k3 d10 k3, PS), for which, under “MM.1R, 1 µM”, the target mRNA inhibition worked out at 13%.

Consider ATTACTAGATTGTAGG (sugars k3 d10 k3, PS), for which the target mRNA inhibition (SK-MEL-28, 4 µM) stood at 50%.

For GCTCATGTTTTTTGAC (sugars k3 d10 k3, PS), the target mRNA inhibition (SK-MEL-28, 4 µM) amounted to 56%.

Take “CCTCAGTTTGTGAAGC (sugars kkdddddddddekeke, PS)”: the target mRNA inhibition (MM.1R, 1 µM) came out at 21%.

As to AGCCACTATGGTAGGA (sugars k3 d10 k3, PS), the target mRNA inhibition (SK-MEL-28, 4 µM) came to 43%.

Turning to GCTCATGCCGAACTCT (sugars k4 d8 k4, PS), the target mRNA inhibition (SK-MEL-28, 4 µM) was 30%.

As to GACCAGAACTAATGTC (sugars k3 d10 k3, PS), the target mRNA inhibition (MM.1R, 1 µM) is -27%.

“GTAGTATGAGAAACGG (sugars k3 d9 k3 e1, PS)”: the target mRNA inhibition (MM.1R, 1 µM) worked out at 40%.
